{"source": "patent US20050089473A1", "about": "“Potassium channel mediated delivery of agents through the blood-brain barrier” (Cedars-Sinai Medical Center, priority 2003, published 2005)", "key": {"intracerebral RG2 tumors": {"system": "intracerebral RG2 tumors", "experiment": "In vivo BTB permeability (Ki by quantitative autoradiography) in RG2 tumor-bearing rats", "design": "species or system rat", "details": "i.c. MS 30 μg/kg/min, RG2 tumor", "procedure": "All animal experiments were conducted in accordance with policies set by the Institutional Animal Care and Usage Committee and NIH guidelines. A rat syngeneic tumor model was prepared using female Wistar rats and a human-tumor xenograft model in athymic nude rats weighing 180-200 g were prepared for the BBB/BTB permeability studies. […] Rat glioma (RG2) cells (1×10^5) in 5 μl of medium with 1.2% methylcellulose were injected into the basal ganglia of Wistar rats, while nude rats were injected with glioblastoma multiforme (GBM) primary cells (5×10^5). The coordinates were 5-mm lateral to the bregma and 4.5 mm deep to the basal ganglia. […] In regional permeability studies, 5 min after the start of the intracarotid (i.c.) infusion, 100 μCi/kg of [^14C] […]\nThe Ki was determined for radiotracers, [^14C]-AIB, [^14C]-carboplatin, and [^14C] dextran in the tumor core, tumor-adjacent brain tissue, and contralateral brain tissue using the quantitative autoradiographic (QAR) method as described earlier (Ningarsj, N. S., Rao, M., Hashizume, K., Asotra, K., and Black, K. L. Regulation of blood-brain tumor barrier permeability by calcium-activated potassium channels J. Pharmacol. Exp. Ther., 301:838-851, 2002; Ningaraj, N. S., Rao, M., and Black, K. L. Calcium-dependent potassium channels as a target protein ir. the modulation of blood-brain humor barrier."}, "GBM xenograft": {"system": "GBM xenograft", "experiment": "In vivo BTB permeability (Ki by QAR) in GBM-xenograft nude rat model", "description": "All animal experiments were conducted in accordance with policies set by the Institutional Animal Care and Usage Committee and NIH guidelines. A rat syngeneic tumor model was prepared using female Wistar rats and a human-tumor xenograft model in athymic nude rats weighing 180-200 g were prepared for the BBB/BTB permeability studies. Although brain tumor blood vessel development is rapid in rats compared to humans, this variable should not affect the findings or conclusions because the study analyzes the response of blood vessels, regardless of how rapidly they developed, to vasomodulators. The optimum number of tumor cells and incubation period for in vivo tumor growth was determined in separate experiments. Rat glioma (RG2) cells (1×10^5) in 5 μl of medium with 1.2% methylcellulose were injected into the basal ganglia of Wistar rats, while nude rats were injected with glioblastoma multiforme (GBM) primary cells (5×10^5). The coordinates were 5-mm lateral to the bregma and 4.5 mm deep to the basal ganglia. […]\nThe unilateral transfer constant, Ki (μl/g/min), which is an initial rate for blood-to-brain transfer of a radiotracer, was calculated as described by Ohno et al. (Ohno, K., Pettigrew, K. O., and Rapsport, S. T. Lower limits of cerebrovascular permeability to […] in the conscious rat. Am. J. Physiol., 253: H299-H307, 1978). […]"}, "[1]": {"experiment": "Physiological measurements during BTB permeability determination", "type": "in vivo, rat", "description": "All animal experiments were conducted in accordance with policies set by the Institutional Animal Care and Usage Committee and NIH guidelines. A rat syngeneic tumor model was prepared using female Wistar rats and a human-tumor xenograft model in athymic nude rats weighing 180-200 g were prepared for the BBB/BTB permeability studies. Although brain tumor blood vessel development is rapid in rats compared to humans, this variable should not affect the findings or conclusions because the study analyzes the response of blood vessels, regardless of how rapidly they developed, to vasomodulators. The optimum number of tumor cells and incubation period for in vivo tumor growth was determined in separate experiments. Rat glioma (RG2) cells (1×10^5) in 5 μl of medium with 1.2% methylcellulose were injected into the basal ganglia of Wistar rats, while nude rats were injected with glioblastoma multiforme (GBM) primary cells (5×10^5). The coordinates were 5-mm lateral to the bregma and 4.5 mm deep to the basal ganglia. Seven days (for RG2 tumor) and 3-4 weeks (for GBM) after tumor implantation, the rats were prepared for permeability study as described by (Ningarsj, N. S., Rao, M., Hashizume, K., Asotra, K., and Black, K. L. Regulation of blood-brain tumor barrier permeability by calcium-activated potassium channels J. Pharmacol. Exp. Ther., 301:838-851, 2002; Ningaraj, N. S., Rao, M., and Black, K. L. Calcium-dependent potassium channels as a target protein ir. the modulation of blood-brain humor barrier. Drug News and Perspectives, 16:1-8, 2003). In regional permeability studies, 5 min after the start of the intracarotid (i.c.) infusion, 100 μCi/kg of [^14C] AIB, [^14C] dextran or [^14C] carboplatin to 1 ml phosphate buffer saline (PBS) was injected as an intravenous (i.v.) bolus within a 15 second period. To determine whether the infusion of vasomodulators would affect cerebral blood flow (CBF) at the tumor area, Cerebral Laser-Doppler Flowmetry (LDF) using a Laser-Doppler (DRT4, Moore Instruments Ltd., England) equipped with a DP3 optical (1 mm diameter) probe during 15 min i.c. infusion of vasomodulators in some rats (n=3/group) was used as described in Ningarsj, N. S., Rao, M., Hashizume, K., Asotra, K., and Black, K. L. Regulation of blood-brain tumor barrier permeability by calcium-activated potassium channels J. Pharmacol. Exp. Ther., 301:838-851, 2002; and Ningaraj, N. S., Rao, M., and Black, K. L. Calcium-dependent potassium channels as a target protein ir. the modulation of blood-brain humor barrier. Drug News and Perspectives, 16:1-8, 2003. Rats with abnormal CBF, blood gases or blood pressure were excluded from the study.\nThe physiological parameters were determined either before or during vasomodulator infusion. The values are mean±SD of n>4 rats, except for cerebral blood flowmetry (CBF) where three representative rats per group were used. pH is arterial pH; PaO2 is arterial oxygen; PaCO2 is arterial carbon dioxide; and MAP is mean arterial blood pressure."}, "[2]": {"system": "metastatic breast brain tumors", "experiment": "[14C]AIB uptake in metastatic breast brain tumor model", "type": "in vivo, rat", "details": "intravenous co-injection"}, "[3]": {"system": "metastatic lung brain tumors", "experiment": "[14C]AIB uptake in metastatic lung brain tumor model", "type": "in vivo", "details": "intravenous co-injection"}, "[4]": {"system": "RG2 tumor capillary endothelium", "experiment": "Transmission electron microscopy of vesicular transport in tumor capillary endothelium", "type": "in vivo, rat", "details": "i.c. MS 30 μg/kg/min 15 min", "source_text": "S., Rao, […]., and Black, K. L. Regulation of blood-brain tumor barrier permeability by calcium-activated potassium channels J. Pharmacol. Exp. Ther., 301:838-851, 2002). […] S., Rao, […]., and Black, K. L. Regulation of blood-brain tumor barrier permeability by calcium-activated potassium channels J. Pharmacol. Exp. Ther., 301:838-851, 2002). Briefly, micrographs were placed on a digitizing screen and structural features measued using Scan […]TM, a computer-assisted, image analysis system (Jandel Scientific, Corte Madera, Calif.). Abluminal and luminal circumferences, areas of endothelial cytoplasm excluding nuclei and vacuoles, and mean thickness of endothelial cytoplasm were measured and compared with those in the control group. The mean thickness of endothelium was calculated by subtraction of the luminal radius from the abluminal radius, which was obtained from the areas encircled by the luminal and abluminal circumferences, respectively. The proportion of total vesicular area to the cytoplasmic area was expressed as a percentage in order to derive another parameter to characterize vesicular transport."}, "[5]": {"details": "before or during vasomodulator infusion, mean±SD"}}, "note": "Structures can show the parent of a compound that is named as a salt.", "data": [{"smiles": "Nc1cc(N2CCCCC2)nc(N)[n+]1OS(=O)(=O)[O-]", "note": "[MS, minoxidil sulfate]", "values": [{"measurement": "Delivery of [14C]-labeled AIB, dextran and carboplatin across the BTB", "setting": "intracerebral RG2 tumors", "value": "significantly enhanced delivery"}, {"measurement": "BTB permeability (Ki)", "setting": "GBM xenograft; GBM xenograft nude rat, i.c. MS 30 μg/kg/min, glibenclamide 5 μg/kg/min for 15 min", "value": "52 ± 8", "unit": "µL/g/min"}, {"measurement": "BBB permeability in normal brain surrounding tumor or normal contralateral brain", "setting": "GBM xenograft; i.c. infusion", "value": "did not significantly affect BBB permeability"}, {"measurement": "PaCO2", "setting": "[1]; [5]", "value": "45 ± 1", "unit": "mm Hg"}, {"measurement": "PaO2", "setting": "[1]; [5]", "value": "90 ± 5", "unit": "mm Hg"}, {"measurement": "pH (arterial pH)", "setting": "[1]; [5]", "value": "7.38 ± 0.01"}, {"measurement": "Effect on CBF", "setting": "[1]; i.c. 30 μg/kg/min, laser Doppler", "value": "not to significantly affect CBF"}, {"measurement": "CBF (% change vs. vehicle)", "setting": "[1]; laser-Doppler flowmetry, three rats per group", "value": "8 ± 3", "unit": "% change vs. vehicle"}, {"measurement": "Level of [14C]AIB in brain tumor tissue versus saline", "setting": "[2]", "value": "approximately three times as great"}, {"measurement": "Level of [14C]AIB surrounding the tumor and in contralateral brain versus vehicle", "setting": "[2]", "value": "does not differ significantly"}, {"measurement": "Increase of [14C]AIB uptake to the tumor", "setting": "[3]", "value": "approximately three-fold"}, {"measurement": "Endothelial tight junction indices in tumor capillaries", "setting": "[4]", "value": "did not alter the endothelial tight junction indices"}, {"measurement": "Vesicular density in tumor capillary endothelium", "setting": "[4]", "value": "significantly increased vesicular density"}]}]}
